# According to ChEMBL document CHEMBL1139300, “Identification of a small molecule beta-secretase inhibitor that binds without catalytic aspartate engagement” (Bioorg Med Chem Lett, 2009):
# Biological target: Beta-secretase 1 (Homo sapiens, UniProt P56817)
# Test: Inhibition of BACE1
# Sequence of Beta-secretase 1 (P56817 whole entry): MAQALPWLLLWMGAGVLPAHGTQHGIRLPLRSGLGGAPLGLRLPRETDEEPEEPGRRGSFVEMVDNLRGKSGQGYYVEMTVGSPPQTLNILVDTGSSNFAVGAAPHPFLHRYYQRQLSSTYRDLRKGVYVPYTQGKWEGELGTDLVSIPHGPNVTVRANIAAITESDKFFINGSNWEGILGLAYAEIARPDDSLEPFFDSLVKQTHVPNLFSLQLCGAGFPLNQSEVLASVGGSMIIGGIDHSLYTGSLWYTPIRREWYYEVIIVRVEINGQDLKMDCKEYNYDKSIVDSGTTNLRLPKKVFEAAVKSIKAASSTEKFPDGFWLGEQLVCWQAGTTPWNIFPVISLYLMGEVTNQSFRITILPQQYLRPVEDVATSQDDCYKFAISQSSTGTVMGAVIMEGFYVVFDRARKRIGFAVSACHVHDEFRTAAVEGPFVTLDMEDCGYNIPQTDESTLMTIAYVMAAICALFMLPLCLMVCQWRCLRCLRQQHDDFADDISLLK
row,IC50 [µM],SMILES
1,> 600,CC(=O)Nc1cc(Nc2cc(-c3ccccc3)ncn2)ccc1C
2,> 600,O=[N+]([O-])c1cc(Nc2cc(-c3ccccc3)ncn2)ccc1Br
3,400,CS(=O)(=O)Nc1cccc(Nc2cc(-c3ccccc3)ncn2)c1
4,16,CS(=O)(=O)Nc1cc(Nc2cc(-c3ccccc3)ncn2)ccc1Cl
5,110,CS(=O)(=O)Nc1cc(Nc2cc(-c3ccccc3)ncn2)ccc1F
6,69,COc1ccc(Nc2cc(-c3ccccc3)ncn2)cc1NS(C)(=O)=O
7,317,Cc1ccc(Nc2cc(-c3ccccc3N(C)C)ncn2)cc1NS(C)(=O)=O
8,> 600,Nc1cc(Nc2cc(-c3ccccc3)ncn2)ccc1Br
9,> 600,CS(=O)(=O)Nc1cc(Nc2cc(-c3ccccc3)ncn2)ccc1-c1ccccc1
10,21,Cc1ccc(Nc2cc(-c3ccc4c(c3)OCCO4)ncn2)cc1NS(C)(=O)=O
11,570,C=CCc1ccc(Nc2cc(-c3ccccc3)ncn2)cc1NS(C)(=O)=O
12,15,Cc1ccc(Nc2cc(-c3ccc(N(C)C)cc3)ncn2)cc1NS(C)(=O)=O
13,219,Cc1ccc(Nc2cc(-c3ccccc3C)ncn2)cc1NS(C)(=O)=O
14,24,Cc1ccc(Nc2cc(-c3ccccc3)ncn2)cc1NS(C)(=O)=O
15,30,CS(=O)(=O)Nc1cc(Nc2cc(-c3ccccc3)ncn2)ccc1Br
16,37,Cc1ccc(Nc2cc(-c3ccc(CCCO)cc3)ncn2)cc1NS(C)(=O)=O
17,> 1600,Cc1ccc(Nc2cc(-c3ccccc3)ncn2)cc1N(C)S(C)(=O)=O
18,19,Cc1ccc(Nc2cc(-c3ccc(-c4ccccc4)cc3)ncn2)cc1NS(C)(=O)=O
